Results: US20220194938A1, “NOVEL COMPOUNDS AND PHARMACEUTICAL COMPOSITIONS THEREOF FOR THE TREATMENT OF INFLAMMATORY DISORDERS” (GALAPAGOS NV, priority 2019, published 2022)

Key:
[1] = system: pooled cryopreserved hepatocytes; assay: Metabolic stability in hepatocytes (mouse); format: in vitro ADME; settings: 1 μM test compound
Method: (§1) 4.6. Metabolic Stability in Hepatocytes
(§2) The aim of this assay is to determine the metabolic stability of the compound in hepatocytes (cryopreserved) of different species. Low hepatocyte stability may result in the formation of unwanted metabolites, high clearance, and therefore is not desirable.
(§3) The decrease in parent was assessed by measuring the percentage remaining by LC-MS/MS analysis.
(§4) A 10 mM stock solution of test compound in DMSO was first diluted in DMSO to 3 mM, and then in modified Krebs-Henseleit buffer (Sigma, K3753) to 5 μM. This compound dilution was added to a suspension of pooled cryopreserved hepatocytes (BioreclamationIVT) at 37° C. under gentle shaking.
(§5) Final reaction conditions were: 1 μM of test compound, 0.03% DMSO, 0.5 million viable hepatocytes/mL, and 75 μL incubation volume.
(§6) Testosterone (1 μM) and 7-hydroxycoumarin (1 μM) were used, respectively as phase I and phase II metabolic reaction controls.
(§7) After 0, 10, 20, 45, 90, 120 and 180 min of incubation, the reaction was terminated with 225 μL of MeCN:MeOH (2:1) containing 100 ng/mL of diclofenac as analytical internal standard. Samples were mixed, centrifuged and the supernatant analyzed by LC-MS/MS.
(§8) The instrument responses (ratios of test compound and internal standard peak areas) were referenced to the zero time point samples (considered as 100%) in order to determine the percentage of compound remaining.
(§9) Plots of percentage compound remaining are used to determine the intrinsic clearance in the hepatocyte incubations using the following equations:
(§10) Scaled Clint[L/h/kg]=Clint[μL/min/10^6 cells]*#(10^6) cells/g liver*60*(1/10^6) Scaled Clint unbound [L/h/kg]=Clint [L/h/kg]/Fu,inc where: fu,inc equals hepatocyte binding, derived from microsomal binding (fu,mic) by following equation: […]

[2] = system: pooled cryopreserved hepatocytes; assay: Metabolic stability in hepatocytes (human); format: in vitro ADME; settings: 1 μM test compound
Method: as §1, §2, §3, §4, §5, §6, §7, §8, §9, §10

human IRAK-4 = molecular target: T1, human IRAK-4 (Homo sapiens, UniProt Q9NWZ3); assay: Phosphorylation IC50 determination for human IRAK-4 (ADP-Glo kinase assay); settings: human IRAK-4, RIP140 substrate, Km ATP; read-out: IRAK4 ADPglo biochemical assay IC50
T1 construct: purchased Carna Biosciences 09 145
T1 sequence (Q9NWZ3 1-460): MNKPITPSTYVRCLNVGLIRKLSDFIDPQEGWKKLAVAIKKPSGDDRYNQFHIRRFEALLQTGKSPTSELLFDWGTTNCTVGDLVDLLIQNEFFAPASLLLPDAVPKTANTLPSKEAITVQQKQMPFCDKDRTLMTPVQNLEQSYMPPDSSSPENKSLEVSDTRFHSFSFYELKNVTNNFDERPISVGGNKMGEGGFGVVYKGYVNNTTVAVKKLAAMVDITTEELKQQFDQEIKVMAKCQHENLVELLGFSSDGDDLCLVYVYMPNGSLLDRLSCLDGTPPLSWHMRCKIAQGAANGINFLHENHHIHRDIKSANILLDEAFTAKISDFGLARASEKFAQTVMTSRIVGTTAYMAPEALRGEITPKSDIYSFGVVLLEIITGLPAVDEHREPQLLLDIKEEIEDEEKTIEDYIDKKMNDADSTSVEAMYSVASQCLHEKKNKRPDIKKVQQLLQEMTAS
Method: 3.1. Phosphorylation IC50 Determination for Human IRAK-4
The phosphorylation of the substrate RIP140 (SEQ ID1) by IRAK4 at Km ATP was detected with the ADP-Glo Kinase Assay (Promega, Cat #V9103), a luminescent kinase assay which measures the ADP formed from a kinase reaction. (Zegzouti et al. 2009) In a second step the kinase reaction was terminated and all the remaining ATP was depleted. In a final step the ADP was converted into ATP and this newly synthesized ATP was measured by using a luciferase/luciferin reaction with a luminescent reader. The luminescent signal positively correlated with kinase activity, in particular kinase inhibition giving a decrease of the luminescent signal.
For the semi-automated assay, the positive control (100% inhibition) was prepared by diluting 10 mM staurosporine stock mixture (20 μL) in water (3.8 mL) and DMSO (180 μL), thus resulting in a […] staurosporine solution at 1% DMSO (final concentration after further dilution in the kinase reaction).
For the automated assay, no pre-dilution of the 10 mM staurosporine stock was made. 10 mM staurosporine was spotted directly in the assay plate using acoustic dispensing and complemented with DMSO to result in a similar final concentration as mentioned above.
For the semi-automated assay, the negative control (0% inhibition) was prepared by mixing water (3.8 mL) and DMSO (200 μL) resulting in a final concentration of 1% DMSO after further dilution in the kinase reaction. For the automated assay no pre-dilution of DMSO was done. 100% DMSO was spotted directly on the assay plate.
The assay buffer solution was prepared at a concentration corresponding to 5 fold the final (most diluted) assay concentration by mixing a solution of 125 mM TRIS pH 7.5+0.05% Triton X-100+2.5 mM EGTA (5.27 mL) with 1M mgCl2 (72 μL), 1M DTT (57.6 μL), and 200 mM MnCl2 (360 μL).
For example, for the semi-automated method, the enzyme-substrate mixture was prepared by mixing water (3999 μL), assay buffer solution (1380 μL), 1 mM RIP140 (138 μL—SEQ ID1), and 200 ng/mL IRAK 4 (3.45 μL Carna Biosciences, 09 145).
For semi-automated method, the ATP mixture was prepared at a concentration corresponding to 2.5 fold the final (most diluted) assay concentration of the semi-automated method and 1.5 fold the final (most diluted) assay concentration of the automated method. For example, for the semi-automated method, the ATP mixture was prepared by mixing water (4126 μL), assay buffer solution (1380 μL), and 10 mM ATP (13.80 μL).
The assay was performed either in a semi-automated or fully automated manner. The assay volume and the incubation time of the ADP detection were different accordingly the method used.
3.1.3.1. Semi-Automated Assay
The compounds were prepared as a serial dilution of 10 point dose responses with 1/5 dilution steps in 100% DMSO starting from 2 mM highest concentration, diluted 1/20 in water. 1 μL was transferred dry to the assay plates.
On each assay plate 32 wells of each control (positive & negative) were added, followed by 2 μL enzyme-substrate mixture.
The reaction was started by adding 2 μL diluted ATP (final concentration Km ATP) on the assay plates. Plates were centrifuged for a few seconds at 1000 rpm followed by an incubation at r.t. for 120 min.
The reactions were stopped and the unconsumed ATP was depleted by adding 5 μL ADP-glo Reagent (Promega, Cat #V9103) to the reaction. The plates were quickly centrifuged at 1000 rpm and incubated at r.t. for 40 min corresponding to full ATP depletion.
The ADP was converted back to ATP and luciferase and luciferin were introduced to detect ATP by adding 10 μL kinase detection reagent (Promega, Cat #V9103) to the reaction. The plates were centrifuged for a few seconds at 1000 rpm and incubated at r.t. for a further 30 min.
Luminescent read out was performed on an Envision luminescent reader (Perkin Elmer). […]

| Structure (SMILES) | Mouse (Perc. remaining at 90 min) [1] [%] | Human (Perc. remaining at 90 min) [2] [%] | IC50 (human IRAK-4) [µM] |
| --- | --- | --- | --- |
| COc1cc2nc(CCC(C)(C)O)cn2cc1NC(=O)c1cccc(CC#N)n1 [Compound 14, 6-(cyanomethyl)-N-[2-(3-hydroxy-3-methyl-butyl)-7-methoxy-imidazo[1,2-a]pyridin-6-yl]pyridine-2-carboxamide] | 23.5 | 89.95 | 0.005 to 0.01 |
| CCOc1cc2nc(CCC(C)(C)O)cn2cc1NC(=O)c1cccn(C)c1=O [Compound 29, N-[7-ethoxy-2-(3-hydroxy-3-methyl-butyl)imidazo[1,2-a]pyridin-6-yl]-1-methyl-2-oxo-pyridine-3-carboxamide] | 95.2 | 98.85 | 0.01 to 0.05 |
| COc1cc2nc(CCC(C)(C)O)cn2cc1NC(=O)c1cncc(C)n1 [Compound 16, N-[2-(3-hydroxy-3-methyl-butyl)-7-methoxy-imidazo[1,2-a]pyridin-6-yl]-6-methyl-pyrazine-2-carboxamide] | 74.55 | 29.2 | 0.01 to 0.05 |
| COc1cc2nc(CCC(C)(C)O)cn2cc1NC(=O)c1cncc(C(F)(F)F)n1 [Compound 17, N-[2-(3-hydroxy-3-methyl-butyl)-7-methoxy-imidazo[1,2-a]pyridin-6-yl]-6-(trifluoromethyl)pyrazine-2-carboxamide] | – | – | 0.01 to 0.05 |
| COc1cc2nc(CCC(C)(C)O)cn2cc1NC(=O)c1cccc(Cl)n1 [Compound 34, 6-chloro-N-[2-(3-hydroxy-3-methylbutyl)-7-methoxyimidazo[1,2-a]pyridin-6-yl]pyridine-2-carboxamide] | 6.59 | 49.8 | 0.005 to 0.01 |
| CC(C)(O)CCc1cn2cc(NC(=O)c3cccc(C(F)(F)F)n3)c(Br)cc2n1 [Compound 36, N-[7-bromo-2-(3-hydroxy-3-methyl-butyl)imidazo[1,2-a]pyridin-6-yl]-6-(trifluoromethyl)pyridine-2-carboxamide] | – | – | 0.0001 to 0.005 |
| COc1cc2nc(CCS(C)(=O)=O)cn2cc1NC(=O)c1cccn(C(F)F)c1=O [Compound 26, 1-(difluoromethyl)-N-[7-methoxy-2-(2-methylsulfonylethyl)imidazo[1,2-a]pyridin-6-yl]-2-oxo-pyridine-3-carboxamide] | – | 106 | 0.005 to 0.01 |
| COc1cc2nc(CCC(C)(C)O)cn2cc1NC(=O)c1nc(C)ccc1Cl [Compound 11, 3-chloro-N-[2-(3-hydroxy-3-methyl-butyl)-7-methoxy-imidazo[1,2-a]pyridin-6-yl]-6-methyl-pyridine-2-carboxamide] | – | – | > 0.05 |
| COc1cc2nc(CCC(C)(C)O)cn2cc1NC(=O)c1ccc(F)c(Cl)n1 [Compound 32, 6-chloro-5-fluoro-N-[2-(3-hydroxy-3-methylbutyl)-7-methoxyimidazo[1,2-a]pyridin-6-yl]pyridine-2-carboxamide] | – | – | 0.01 to 0.05 |
| CNC(=O)c1cc2nc(CCS(C)(=O)=O)cn2cc1NC(=O)c1cccc(C(F)(F)F)n1 [Compound 30, N-methyl-2-(2-methylsulfonylethyl)-6-[[6-(trifluoromethyl)pyridine-2-carbonyl]amino]imidazo[1,2-a]pyridine-7-carboxamide] | – | – | 0.01 to 0.05 |
| COc1cc2nc(CCC(C)(C)O)cn2cc1NC(=O)c1cccnc1O [Compound 9, 2-hydroxy-N-[2-(3-hydroxy-3-methyl-butyl)-7-methoxy-imidazo[1,2-a]pyridin-6-yl]pyridine-3-carboxamide] | – | – | 0.005 to 0.01 |

Continued, values first:

| Mouse (Perc. remaining at 90 min) [1] [%] | Human (Perc. remaining at 90 min) [2] [%] | IC50 (human IRAK-4) [µM] | Structure (SMILES) |
| --- | --- | --- | --- |
| – | – | 0.005 to 0.01 | CC(C)(O)CCc1cn2cc(NC(=O)c3cccc(C(F)(F)F)n3)c(C(=O)NC3(C)CC3)cc2n1 [Compound 46, 2-(3-hydroxy-3-methylbutyl)-N-(1-methylcyclopropyl)-6-(6-(trifluoromethyl)picolinamido)imidazo[1,2-a]pyridine-7-carboxamide] |
| – | – | 0.005 to 0.01 | CC(C)(O)CCc1cn2cc(NC(=O)c3cccc(C(F)(F)F)n3)c(C(=O)NC3CCOC3)cc2n1 (stereo not shown) [Compound 47, 2-(3-hydroxy-3-methylbutyl)-N-(tetrahydrofuran-3-yl)-6-(6-(trifluoromethyl)picolinamido)imidazo[1,2-a]pyridine-7-carboxamide] |
| 108.1 | 95.6 | 0.01 to 0.05 | CN(C)C(=O)c1cc2nc(CCC(C)(C)O)cn2cc1NC(=O)c1cccc(C(F)(F)F)n1 [Compound 27, 2-(3-hydroxy-3-methyl-butyl)-N,N-dimethyl-6-[[6-(trifluoromethyl)pyridine-2-carbonyl]amino]imidazo[1,2-a]pyridine-7-carboxamide] |
| – | – | 0.005 to 0.01 | CN1CC(NC(=O)c2cc3nc(CCC(C)(C)O)cn3cc2NC(=O)c2cccc(C(F)(F)F)n2)C1 [Compound 43, 2-(3-hydroxy-3-methylbutyl)-N-(1-methylazetidin-3-yl)-6-(6-(trifluoromethyl)picolinamido)imidazo[1,2-a]pyridine-7-carboxamide] |
| – | – | 0.005 to 0.01 | CC(C)(O)CCc1cn2cc(NC(=O)c3cccc(C(F)(F)F)n3)c(C(=O)NC3COC3)cc2n1 [Compound 44, 2-(3-hydroxy-3-methylbutyl)-N-(oxetan-3-yl)-6-(6-(trifluoromethyl)picolinamido)imidazo[1,2-a]pyridine-7-carboxamide] |
| – | – | 0.005 to 0.01 | CC(C)(O)CCc1cn2cc(NC(=O)c3cccc(C(F)(F)F)n3)c(C(=O)NCC3CC3)cc2n1 [Compound 45, N-(cyclopropylmethyl)-2-(3-hydroxy-3-methylbutyl)-6-(6-(trifluoromethyl)picolinamido)imidazo[1,2-a]pyridine-7-carboxamide] |
